Results reported in patent publication US8084431B2, “Method for inhibiting activation of macrophages, inhibiting formation of osteoclasts, inhibiting function of osteoclasts, and/or activating osteoblasts” (China Medical University, priority 2008, dated 2011).

Test system: MMP-9 (metalloproteinases 9)
Assay: RT-PCR of MMP-9 mRNA in RANKL-treated macrophages RAW 264.7
Type: cell-based
Settings: kinsenoside 50 μM, RANKL 50 ng/ml, 24, 48, 72 hours, FIG. 8A and 8B
Experimental: As osteoclasts are activated, they RELEASE MMP-9 (metalloproteinases 9) to erode collagen in bones. Using RT-PCR to analyze the expression of mRNA of MMP-9, one can see if kinsenoside inhibits the bone resorption activity of osteoclasts.
As macrophages RAW 264.7 were incubated in culture plates containing 50 ng/ml of RANKL, 50 μM of kinsenoside was added thereto. After the macrophages RAW 264.7 were incubated for 24, 48, and 72 hours, mRNAs were extracted to analyze the expression of MMP-9 with RT-PCR. […] Thus, kinsenoside can inhibit the bone resorption of osteoclasts.

For `O=C1C[C@@H](OC2OC(CO)C(O)C(O)C2O)CO1` (stereo partly drawn) [kinsenoside, 3-(R)-3-β-D-glucopyranosyloxy-butanolide], the “expression of mRNA of MMP-9” value was “inhibits the expression of mRNA of MMP-9”.
